Assay results reported in publication PMC12749166, “Fragment-based drug design of a bacterial kinase inhibitor capable of increasing the antibiotic sensitivity of clinical isolates” (Communications Chemistry, 2025).

Experiments:
APH(3’)-IIb = molecular target: T1, APH(3’)-IIb (Pseudomonas aeruginosa, UniProt Q9HWR2, M95L); test: Isothermal Titration Calorimetry; type: binding, P. aeruginosa
T1 sequence (Q9HWR2 1-268 M95L): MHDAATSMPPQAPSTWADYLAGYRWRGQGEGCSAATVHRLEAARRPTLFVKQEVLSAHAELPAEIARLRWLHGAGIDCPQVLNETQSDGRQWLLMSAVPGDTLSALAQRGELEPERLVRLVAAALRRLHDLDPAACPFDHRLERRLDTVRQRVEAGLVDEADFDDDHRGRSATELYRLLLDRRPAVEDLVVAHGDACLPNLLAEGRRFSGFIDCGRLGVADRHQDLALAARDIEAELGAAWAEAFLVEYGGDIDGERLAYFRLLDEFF
Method: (§1) ITC experiments were performed on three different machines: a MicroCal VP-ITC (GE Healthcare), a MicroCal PEAQ-ITC (Malvern), or a MicroCal iTC200 (Malvern). The architecture and principles are similar for the three different systems. The experiments were carried out in Buffer HEPES at 25 °C. Titrations consisted of twenty injections of 1.5 µL inhibitors, every 120 seconds, into the measuring cell using the injection syringe rotating at 750 rpm. The data were analyzed using the MicroCal PEAQ-ITC software (v. 1.52, Malvern) using the single-site binding model to fit the raw data. The standard error of the Kd value was determined from measurements made on distinct samples (n indicated in the text).

APH(3’)-Ib = molecular target: T2, APH(3’)-Ib (Escherichia coli, UniProt P14509); test: biochemical; design: species or system E. coli and K. pneumoniae
T2 construct: His-tag (inferred from HisTrap purification); made in house; host or cells: E. coli BL21

APH(3’)-IIa = molecular target: T3, APH(3’)-IIa (Klebsiella pneumoniae, UniProt P00552); test: Isothermal Titration Calorimetry; type: binding, K. pneumoniae
T3 construct: His-tag (inferred from HisTrap purification); made in house; host or cells: E. coli BL21
Method: as §1

S. aureus C0032 = test: Checkerboard assay of 83 with kanamycin A; type: cell-based; details: for MIC of kanamycin A: 0.125 µg mL^−1 imipenem, 18 h at 37 °C; for checkerboard well reading (growth): Supp. Figure 3 C

T3 sequence (P00552 whole entry): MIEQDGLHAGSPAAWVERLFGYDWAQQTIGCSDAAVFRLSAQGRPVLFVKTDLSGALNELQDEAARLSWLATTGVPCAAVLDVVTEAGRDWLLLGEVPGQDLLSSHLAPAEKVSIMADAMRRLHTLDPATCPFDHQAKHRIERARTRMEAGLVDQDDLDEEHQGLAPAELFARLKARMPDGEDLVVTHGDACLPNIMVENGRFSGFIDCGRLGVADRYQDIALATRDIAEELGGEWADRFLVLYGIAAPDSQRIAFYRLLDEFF
T2 sequence (P14509 whole entry): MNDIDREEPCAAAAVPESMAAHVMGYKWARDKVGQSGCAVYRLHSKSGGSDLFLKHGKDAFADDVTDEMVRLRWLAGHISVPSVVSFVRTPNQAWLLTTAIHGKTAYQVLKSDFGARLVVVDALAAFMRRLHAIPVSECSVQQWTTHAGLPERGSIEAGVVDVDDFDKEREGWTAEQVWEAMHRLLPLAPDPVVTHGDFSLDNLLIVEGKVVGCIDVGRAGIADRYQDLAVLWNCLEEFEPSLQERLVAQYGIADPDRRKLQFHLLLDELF

## Clc1cnc2[nH]ccc2c1-c1ccn[nH]1 [Compound 83]
APH(3’)-IIb
  Kd: 270 ± 50 nM
APH(3’)-IIb; ITC
  ΔH: -13.6 kcal/mol
APH(3’)-Ib
  inhibition at 100 µM: 55%
APH(3’)-IIa
  Kd: 1250 nM
APH(3’)-IIa; ITC
  ΔH: -13.1 kcal/mol
S. aureus C0032; [83] 2 µg mL^−1
  MIC of kanamycin A: 4096 µg/mL
S. aureus C0032; [83] 4 µg mL^−1
  MIC of kanamycin A: 4096 µg/mL
S. aureus C0032; [83] 8 µg mL^−1
  MIC of kanamycin A: 4096 µg/mL
S. aureus C0032; [83] 16 µg mL^−1
  MIC of kanamycin A: 4096 µg/mL
S. aureus C0032; [83] 32 µg mL^−1
  MIC of kanamycin A: 2048 µg/mL
S. aureus C0032; [83] 64 µg mL^−1
  MIC of kanamycin A: 2048 µg/mL
S. aureus C0032; [83] 128 µg mL^−1
  MIC of kanamycin A: 2048 µg/mL
S. aureus C0032; 83 1 µg.mL-1, kanamycin A 0 µg.mL-1
  checkerboard well reading (growth): 0.496
S. aureus C0032; 83 1 µg.mL-1, kanamycin A 2 µg.mL-1
  checkerboard well reading (growth): 0.320
S. aureus C0032; 83 1 µg.mL-1, kanamycin A 4 µg.mL-1
  checkerboard well reading (growth): 0.317
S. aureus C0032; 83 1 µg.mL-1, kanamycin A 8 µg.mL-1
  checkerboard well reading (growth): 0.300
S. aureus C0032; 83 1 µg.mL-1, kanamycin A 16 µg.mL-1
  checkerboard well reading (growth): 0.287
S. aureus C0032; 83 1 µg.mL-1, kanamycin A 32 µg.mL-1
  checkerboard well reading (growth): 0.279
S. aureus C0032; 83 1 µg.mL-1, kanamycin A 64 µg.mL-1
  checkerboard well reading (growth): 0.255
S. aureus C0032; 83 1 µg.mL-1, kanamycin A 128 µg.mL-1
  checkerboard well reading (growth): 0.294
S. aureus C0032; 83 2 µg.mL-1, kanamycin A 0 µg.mL-1
  checkerboard well reading (growth): 0.442
S. aureus C0032; 83 2 µg.mL-1, kanamycin A 2 µg.mL-1
  checkerboard well reading (growth): 0.315
S. aureus C0032; 83 2 µg.mL-1, kanamycin A 4 µg.mL-1
  checkerboard well reading (growth): 0.311
S. aureus C0032; 83 2 µg.mL-1, kanamycin A 8 µg.mL-1
  checkerboard well reading (growth): 0.299
S. aureus C0032; 83 2 µg.mL-1, kanamycin A 16 µg.mL-1
  checkerboard well reading (growth): 0.295
S. aureus C0032; 83 2 µg.mL-1, kanamycin A 32 µg.mL-1
  checkerboard well reading (growth): 0.268
S. aureus C0032; 83 2 µg.mL-1, kanamycin A 64 µg.mL-1
  checkerboard well reading (growth): 0.246
S. aureus C0032; 83 2 µg.mL-1, kanamycin A 128 µg.mL-1
  checkerboard well reading (growth): 0.245
S. aureus C0032; 83 4 µg.mL-1, kanamycin A 0 µg.mL-1
  checkerboard well reading (growth): 0.451
S. aureus C0032; 83 4 µg.mL-1, kanamycin A 2 µg.mL-1
  checkerboard well reading (growth): 0.356
S. aureus C0032; 83 4 µg.mL-1, kanamycin A 4 µg.mL-1
  checkerboard well reading (growth): 0.318
S. aureus C0032; 83 4 µg.mL-1, kanamycin A 8 µg.mL-1
  checkerboard well reading (growth): 0.313
S. aureus C0032; 83 4 µg.mL-1, kanamycin A 16 µg.mL-1
  checkerboard well reading (growth): 0.286
S. aureus C0032; 83 4 µg.mL-1, kanamycin A 32 µg.mL-1
  checkerboard well reading (growth): 0.267
S. aureus C0032; 83 4 µg.mL-1, kanamycin A 64 µg.mL-1
  checkerboard well reading (growth): 0.243
S. aureus C0032; 83 4 µg.mL-1, kanamycin A 128 µg.mL-1
  checkerboard well reading (growth): 0.258
S. aureus C0032; 83 8 µg.mL-1, kanamycin A 0 µg.mL-1
  checkerboard well reading (growth): 0.402
S. aureus C0032; 83 8 µg.mL-1, kanamycin A 2 µg.mL-1
  checkerboard well reading (growth): 0.304
S. aureus C0032; 83 8 µg.mL-1, kanamycin A 4 µg.mL-1
  checkerboard well reading (growth): 0.300
S. aureus C0032; 83 8 µg.mL-1, kanamycin A 8 µg.mL-1
  checkerboard well reading (growth): 0.292
S. aureus C0032; 83 8 µg.mL-1, kanamycin A 16 µg.mL-1
  checkerboard well reading (growth): 0.282
S. aureus C0032; 83 8 µg.mL-1, kanamycin A 32 µg.mL-1
  checkerboard well reading (growth): 0.271
S. aureus C0032; 83 8 µg.mL-1, kanamycin A 64 µg.mL-1
  checkerboard well reading (growth): 0.244
S. aureus C0032; 83 8 µg.mL-1, kanamycin A 128 µg.mL-1
  checkerboard well reading (growth): 0.258
S. aureus C0032; 83 16 µg.mL-1, kanamycin A 0 µg.mL-1
  checkerboard well reading (growth): 0.581
S. aureus C0032; 83 16 µg.mL-1, kanamycin A 2 µg.mL-1
  checkerboard well reading (growth): 0.303
S. aureus C0032; 83 16 µg.mL-1, kanamycin A 4 µg.mL-1
  checkerboard well reading (growth): 0.295
S. aureus C0032; 83 16 µg.mL-1, kanamycin A 8 µg.mL-1
  checkerboard well reading (growth): 0.293
S. aureus C0032; 83 16 µg.mL-1, kanamycin A 16 µg.mL-1
  checkerboard well reading (growth): 0.274
S. aureus C0032; 83 16 µg.mL-1, kanamycin A 32 µg.mL-1
  checkerboard well reading (growth): 0.258
S. aureus C0032; 83 16 µg.mL-1, kanamycin A 64 µg.mL-1
  checkerboard well reading (growth): 0.242
S. aureus C0032; 83 16 µg.mL-1, kanamycin A 128 µg.mL-1
  checkerboard well reading (growth): 0.200
S. aureus C0032; 83 32 µg.mL-1, kanamycin A 0 µg.mL-1
  checkerboard well reading (growth): 0.378
S. aureus C0032; 83 32 µg.mL-1, kanamycin A 2 µg.mL-1
  checkerboard well reading (growth): 0.299
S. aureus C0032; 83 32 µg.mL-1, kanamycin A 4 µg.mL-1
  checkerboard well reading (growth): 0.294
S. aureus C0032; 83 32 µg.mL-1, kanamycin A 8 µg.mL-1
  checkerboard well reading (growth): 0.273
S. aureus C0032; 83 32 µg.mL-1, kanamycin A 16 µg.mL-1
  checkerboard well reading (growth): 0.281
S. aureus C0032; 83 32 µg.mL-1, kanamycin A 32 µg.mL-1
  checkerboard well reading (growth): 0.249
S. aureus C0032; 83 32 µg.mL-1, kanamycin A 64 µg.mL-1
  checkerboard well reading (growth): 0.215
S. aureus C0032; 83 32 µg.mL-1, kanamycin A 128 µg.mL-1
  checkerboard well reading (growth): 0.082
S. aureus C0032; 83 64 µg.mL-1, kanamycin A 0 µg.mL-1
  checkerboard well reading (growth): 0.357
S. aureus C0032; 83 64 µg.mL-1, kanamycin A 2 µg.mL-1
  checkerboard well reading (growth): 0.295
S. aureus C0032; 83 64 µg.mL-1, kanamycin A 4 µg.mL-1
  checkerboard well reading (growth): 0.275
S. aureus C0032; 83 64 µg.mL-1, kanamycin A 8 µg.mL-1
  checkerboard well reading (growth): 0.274
S. aureus C0032; 83 64 µg.mL-1, kanamycin A 16 µg.mL-1
  checkerboard well reading (growth): 0.256
S. aureus C0032; 83 64 µg.mL-1, kanamycin A 32 µg.mL-1
  checkerboard well reading (growth): 0.227
S. aureus C0032; 83 64 µg.mL-1, kanamycin A 64 µg.mL-1
  checkerboard well reading (growth): 0.165
S. aureus C0032; 83 64 µg.mL-1, kanamycin A 128 µg.mL-1
  checkerboard well reading (growth): 0.053
S. aureus C0032; 83 128 µg.mL-1, kanamycin A 0 µg.mL-1
  checkerboard well reading (growth): 0.433
S. aureus C0032; 83 128 µg.mL-1, kanamycin A 2 µg.mL-1
  checkerboard well reading (growth): 0.365
S. aureus C0032; 83 128 µg.mL-1, kanamycin A 4 µg.mL-1
  checkerboard well reading (growth): 0.303
S. aureus C0032; 83 128 µg.mL-1, kanamycin A 8 µg.mL-1
  checkerboard well reading (growth): 0.296
S. aureus C0032; 83 128 µg.mL-1, kanamycin A 16 µg.mL-1
  checkerboard well reading (growth): 0.283
S. aureus C0032; 83 128 µg.mL-1, kanamycin A 32 µg.mL-1
  checkerboard well reading (growth): 0.276
S. aureus C0032; 83 128 µg.mL-1, kanamycin A 64 µg.mL-1
  checkerboard well reading (growth): 0.204
S. aureus C0032; 83 128 µg.mL-1, kanamycin A 128 µg.mL-1
  checkerboard well reading (growth): 0.066
S. aureus C0032; absence of antibiotics, 83 from 0 to 128 µg mL^−1 (585 µM)
  Impact of 83 alone on bacterial growth: no impact on bacterial growth
